Tests used:
[1] = biological target: T1, recombinant human β-secretase (rhBACE-1) (Homo sapiens, UniProt P56817); experiment: Measurement of 50% inhibition concentration (IC50) of β-secretase (BACE-1) enzyme, fluorescent substrate peptide; type: biochemical; conditions: rhBACE-1, pH 4.5, 37° C., 2.5 hr
T1 construct: purchased Invitrogen
Experimental: Compounds were dissolved in 0.1 M sodium acetate buffer (with 150 mM sodium chloride, pH 4.5) and 10% dimethylsulfoxide (DMSO). The solution with no compound was used as a negative control. Then, 15 μL of these solutions (final compound concentration: 0.3, 0.9, 3.0, 9.0, and 30.0 μM), 1 unit/mL of recombinant human β-secretase (rhBACE-1, Invitrogen), and 15 μL of the fluorescent substrate peptide were mixed in a black 384-well microtiter plate (Coaster). After mixtures were incubated in the dark at 37° C. for 2.5 hr, the fluorescence intensities of the mixtures were measured by fluorescence microplate reader (Wallac) at 545 nm for excitation and at 590 nm for emission. The inhibition ratio of each compound was calculated using the intensity of the solution without any compound as a negative control. The sequence of the peptide was Ser-Glu-Val-Asn-Leu-Asp-Ala-Glu-Lys-Arg, and labeled with fluorescent donor (Cy3) at Ser-1 and with quencher (Cy5Q) at Lys-9, respectively (Invitrogen) Inhibitory activities of each compound are shown in FIG. 1.

[2] = tested on: Aβ-40 and Aβ-42 production; experiment: Inhibitory effect on Aβ-40 and Aβ-42 production in rat primary cultured cell (Aβ ELISA of culture medium); type: cell-based; conditions: 72 hr, rat cerebral cortex primary culture
Experimental: Cerebral cortex was obtained from 19-20 day-old embryonic Wistar rat. The tissue was minced, dissociated using scalpel blades and Pasteur pipette in Hunks buffered solution, and centrifuged at 100 rpm. Precipitated cells were filtered using […] cell strainer, and single cells were prepared. These cells were suspended in Eagle's Minimum Essential Medium (EMEM) containing 10% Fetal bovine serum, and plated into 48-well tissue culture plates (Becton Dickinson) at 200 μL/well and 1.7×10^5 cells/cm^2. Cultures were incubated at 37° C. in a humidified atmosphere of 5% CO2. After 3, 5, and 7 days in culture, the medium was replaced, and after 9 days, CU532 was dissolved in DMSO and diluted in culture media so that the final concentration of DMSO in culture media was 0.1%, and each solution was added to each well at […] for 72 hr. The control solution contained 0.1% DMSO.
After 72 hr, Aβ-40 and Aβ-42 in culture media were measured using by Aβ ELISA kit (Wako). 100 μL of the culture medium and standard diluents were added to the antibody-coated plate, and incubated at 4° C. over night. Then the plate was washed by wash buffer 5 times and 100 μL of HRP-labeled detection antibody solution was added to the plate. After 1 hour, the plate was washed 5 times, and TMB chromogenic reagent was added to the plate. After 30 minute, stop solution was added and absorbance at 450 nm of the solution was measured by microplate reader (BIORAD). The concentration of Aβ in culture medium was calculated from the standard curve.

T1 sequence (P56817 46-501): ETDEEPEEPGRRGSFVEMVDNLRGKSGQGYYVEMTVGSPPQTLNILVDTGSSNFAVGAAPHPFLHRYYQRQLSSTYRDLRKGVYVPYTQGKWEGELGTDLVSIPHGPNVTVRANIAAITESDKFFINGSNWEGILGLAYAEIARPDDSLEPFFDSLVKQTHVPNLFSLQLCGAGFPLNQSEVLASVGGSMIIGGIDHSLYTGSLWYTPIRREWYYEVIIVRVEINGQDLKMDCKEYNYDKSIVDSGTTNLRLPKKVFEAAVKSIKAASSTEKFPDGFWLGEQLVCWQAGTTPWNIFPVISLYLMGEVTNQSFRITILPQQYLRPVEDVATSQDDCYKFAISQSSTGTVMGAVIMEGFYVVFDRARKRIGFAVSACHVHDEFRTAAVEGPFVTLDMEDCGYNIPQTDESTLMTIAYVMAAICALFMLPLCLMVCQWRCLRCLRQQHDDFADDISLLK

melting point [°C] | Compound | also measured
190 to 192 | COc1cc(/C=C/C(=O)CC(=O)/C=C/c2ccc(O)cc2)ccc1[N+](=O)[O-] [CU050, (1E,6E)-1-(4-hydroxyphenyl)-7-(3-methoxy-4-nitrophenyl)hepta-1,6-diene-3,5-dione] | IC50 [1]: 16 µM
187 to 194 | O=C(/C=C/c1ccc(O)cc1)CC(=O)/C=C/c1cc(O)ccc1[N+](=O)[O-] [CU131, (1E,6E)-1-(5-hydroxy-2-nitrophenyl)-7-(4-hydroxyphenyl)hepta-1,6-diene-3,5-dione] | IC50 [1]: 0.91 µM
168 to 172 | O=C(/C=C/c1ccc(O)cc1)CC(=O)/C=C/c1cc(OCc2ccccc2)ccc1[N+](=O)[O-] [CU475, (1E,6E)-1-(5-benzyloxy-2-nitrophenyl)-7-(4-hydroxyphenyl)hepta-1,6-diene-3,5-dione] | IC50 [1]: 0.74 µM
151 to 155 | COc1ccc([N+](=O)[O-])c(/C=C/C(=O)CC(=O)/C=C/c2ccc(O)cc2)c1 [CU481, (1E,6E)-1-(4-hydroxyphenyl)-7-(5-methoxy-2-nitrophenyl)hepta-1,6-diene-3,5-dione] | IC50 [1]: 1.2 µM
186 to 192 | Nc1ccc(O)cc1/C=C/C(=O)CC(=O)/C=C/c1ccc(O)cc1 [CU488, (1E,6E)-1-(2-amino-5-hydroxyphenyl)-7-(4-hydroxyphenyl)hepta-1,6-diene-3,5-dione] | IC50 [1]: 7.3 µM
175 to 179 | Nc1ccc(OCc2ccccc2)cc1/C=C/C(=O)CC(=O)/C=C/c1ccc(O)cc1 [CU489, (1E,6E)-1-(2-amino-5-benzyloxyphenyl)-7-(4-hydroxyphenyl)hepta-1,6-diene-3,5-dione] | IC50 [1]: 5.6 µM
182 to 186 | O=C(/C=C/c1ccc(O)cc1)CC(=O)/C=C/c1cc(O)ccc1Br [CU532, (1E,6E)-1-(2-bromo-5-hydroxyphenyl)-7-(4-hydroxyphenyl)hepta-1,6-diene-3,5-dione] | amount of Aβ-42 in culture medium ([2]; at 0.3 μM): significantly decreased; amount of Aβ-40 in culture medium ([2]; at 1 μM): significantly decreased
158 to 161 | O=C(/C=C/c1ccc(O)cc1)CC(=O)/C=C/c1ccccc1Cl [CU624, (1E,6E)-1-(2-chlorophenyl)-7-(4-hydroxyphenyl)hepta-1,6-diene-3,5-dione] | –
231 to 237 | CCOC(=O)c1cn(-c2ccccc2/C=C/C(=O)CC(=O)/C=C/c2ccc(O)cc2)nn1 [CU625, (1E,6E)-1-[2-(4-ethoxycarbonyl-1H-1,2,3-triazol-1-yl)phenyl]-7-(4-hydroxyphenyl)hepta-1,6-diene-3,5-dione] | –
93 to 96 | CCOC(=O)c1cnnn1-c1ccccc1/C=C/C(=O)CC(=O)/C=C/c1ccc(O)cc1 [CU626, (1E,6E)-1-[2-(5-ethoxycarbonyl-1H-1,2,3-triazol-1-yl)phenyl]-7-(4-hydroxyphenyl)hepta-1,6-diene-3,5-dione] | –
187 to 191 | O=C(/C=C/c1ccc(O)cc1)CC(=O)/C=C/c1cc(F)ccc1-c1ccccc1 [CU640, (1E,6E)-1-(4-fluorobiphenyl-2-yl)-7-(4-hydroxyphenyl)hepta-1,6-diene-3,5-dione] | –
193 to 196 | O=C(/C=C/c1ccc(O)cc1)CC(=O)/C=C/c1cc(Cl)ccc1-c1ccccc1 [CU641, (1E,6E)-1-(4-chlorobiphenyl-2-yl)-7-(4-hydroxyphenyl)hepta-1,6-diene-3,5-dione] | –
173 to 177 | Cc1ccccc1-c1ccc(O)cc1/C=C/C(=O)CC(=O)/C=C/c1ccc(O)cc1 [CU642, (1E,6E)-1-(4-hydroxy-2′-methylbiphenyl-2-yl)-7-(4-hydroxyphenyl)hepta-1,6-diene-3,5-dione] | –
111 to 115 | CCOc1ccccc1-c1ccc(O)cc1/C=C/C(=O)CC(=O)/C=C/c1ccc(O)cc1 [CU643, (1E,6E)-1-(2′-ethoxy-4-hydroxybiphenyl-2-yl)-7-(4-hydroxyphenyl)hepta-1,6-diene-3,5-dione] | –
103 to 109 | O=C(/C=C/c1ccc(O)cc1)CC(=O)/C=C/c1ccccc1-c1cn(Cc2ccccc2)nn1 [CU644, (1E,6E)-1-[2-(1-benzyl-1H-1,2,3-triazol-4-yl)phenyl]-7-(4-hydroxyphenyl)hepta-1,6-diene-3,5-dione] | –
205 to 215 | O=C(/C=C/c1ccc(O)cc1)CC(=O)/C=C/c1ccccc1-c1cnnn1Cc1ccccc1 [CU645, (1E,6E)-1-[2-(1-benzyl-1H-1,2,3-triazol-5-yl)phenyl]-7-(4-hydroxyphenyl)hepta-1,6-diene-3,5-dione] | –
99 to 105 | CCOC(=O)Cn1cc(-c2ccccc2/C=C/C(=O)CC(=O)/C=C/c2ccc(O)cc2)nn1 [CU646, (1E,6E)-1-[2-(1-ethoxycarbonylmethyl-1H-1,2,3-triazol-4-yl)phenyl]-7-(4-hydroxyphenyl)hepta-1,6-diene-3,5-dione] | –
169 to 174 | CCOC(=O)Cn1nncc1-c1ccccc1/C=C/C(=O)CC(=O)/C=C/c1ccc(O)cc1 [CU647, (1E,6E)-1-[2-(1-ethoxycarbonylmethyl-1H-1,2,3-triazol-5-yl)phenyl]-7-(4-hydroxyphenyl)hepta-1,6-diene-3,5-dione] | –
175 to 180 | COCOc1ccc([N+](=O)[O-])c(/C=C/C(=O)CC(=O)/C=C/c2ccc(O)cc2)c1 [CU649, (1E,6E)-1-(4-hydroxyphenyl)-7-[5-(methoxymethoxy)-2-nitrophenyl]hepta-1,6-diene-3,5-dione] | –
153 to 161 | [N-]=[N+]=Nc1ccccc1/C=C/C(=O)CC(=O)/C=C/c1ccc(O)cc1 [CU651, (1E,6E)-1-(2-azidophenyl)-7-(4-hydroxyphenyl)hepta-1,6-diene-3,5-dione] | –
215 to 218 | COc1cc(/C=C/C(=O)CC(=O)/C=C/c2ccc(O)cc2)c(Br)c(Br)c1O [CU652, (1E,6E)-1-(2,3-dibromo-4-hydroxy-5-methoxyphenyl)-7-(4-hydroxyphenyl)hepta-1,6-diene-3,5-dione] | –
196 to 205 | O=C(/C=C/c1ccc(O)cc1)CC(=O)/C=C/c1ccc(O)cc1Br [CU671, (1E,6E)-1-(2-bromo-4-hydroxyphenyl)-7-(4-hydroxyphenyl)hepta-1,6-diene-3,5-dione] | –
119 to 128 | O=C(/C=C/c1ccc(O)cc1)CC(=O)/C=C/c1ccccc1C=Cc1ccccc1 [CU672, (1E,6E)-1-(4-hydroxyphenyl)-7-(2-styrylphenyl)hepta-1,6-diene-3,5-dione] | –
238 to 248 | O=C(/C=C/c1ccc(O)cc1)CC(=O)/C=C/c1ccc(N2CCCCC2)cc1Br [CU1090, (1E,6E)-1-[2-bromo-4-(piperidin-1-yl)phenyl]-7-(4-hydroxyphenyl)hepta-1,6-diene-3,5-dione] | –
155 to 161 | O=C(/C=C/c1ccc(O)cc1)CC(=O)/C=C/c1ccc(N2CCC(Cc3ccccc3)CC2)cc1Br [CU1091, (1E,6E)-1-[4-(4-benzylpiperidin-1-yl)-2-bromophenyl]-7-(4-hydroxyphenyl)hepta-1,6-diene-3,5-dione] | –
195 to 204 | O=C(/C=C/c1ccc(O)cc1)CC(=O)/C=C/c1ccc(N2CCN(c3ccccc3)CC2)cc1Br [CU1095, (1E,6E)-1-[2-bromo-4-(4-phenylpiperazin-1-yl)phenyl]-7-(4-hydroxyphenyl)hepta-1,6-diene-3,5-dione] | –
– | COc1cc(/C=C/C(=O)CC(=O)/C=C/c2ccc(O)c(OC)c2)ccc1O [curcumin, reference compound] | inhibitory effect on Aβ production [2]: no inhibitory effect

From patent US8552220B2, “Therapeutic agent for Alzheimer's disease” (Tokyo Institute of Technology, priority 2008, dated 2013)
